According to patent US20100280082A1, “Metabotropic Glutamate Receptor Oxadiazole Ligands and Their Use as Potentiators” (AstraZeneca AB, priority 2007, published 2010):

Molecular target: hERG ion channel (Homo sapiens, UniProt Q12809)
Assay: hERG activity (process of Bridgland-Taylor et al.)
Type: cell-based
Protocol: hERG activity was assessed using the process described by Bridgland-Taylor, M. H., et al, J. Pharm. Tox. Methods 54 (2006) 189-199.

Chain of hERG ion channel (Q12809 whole entry): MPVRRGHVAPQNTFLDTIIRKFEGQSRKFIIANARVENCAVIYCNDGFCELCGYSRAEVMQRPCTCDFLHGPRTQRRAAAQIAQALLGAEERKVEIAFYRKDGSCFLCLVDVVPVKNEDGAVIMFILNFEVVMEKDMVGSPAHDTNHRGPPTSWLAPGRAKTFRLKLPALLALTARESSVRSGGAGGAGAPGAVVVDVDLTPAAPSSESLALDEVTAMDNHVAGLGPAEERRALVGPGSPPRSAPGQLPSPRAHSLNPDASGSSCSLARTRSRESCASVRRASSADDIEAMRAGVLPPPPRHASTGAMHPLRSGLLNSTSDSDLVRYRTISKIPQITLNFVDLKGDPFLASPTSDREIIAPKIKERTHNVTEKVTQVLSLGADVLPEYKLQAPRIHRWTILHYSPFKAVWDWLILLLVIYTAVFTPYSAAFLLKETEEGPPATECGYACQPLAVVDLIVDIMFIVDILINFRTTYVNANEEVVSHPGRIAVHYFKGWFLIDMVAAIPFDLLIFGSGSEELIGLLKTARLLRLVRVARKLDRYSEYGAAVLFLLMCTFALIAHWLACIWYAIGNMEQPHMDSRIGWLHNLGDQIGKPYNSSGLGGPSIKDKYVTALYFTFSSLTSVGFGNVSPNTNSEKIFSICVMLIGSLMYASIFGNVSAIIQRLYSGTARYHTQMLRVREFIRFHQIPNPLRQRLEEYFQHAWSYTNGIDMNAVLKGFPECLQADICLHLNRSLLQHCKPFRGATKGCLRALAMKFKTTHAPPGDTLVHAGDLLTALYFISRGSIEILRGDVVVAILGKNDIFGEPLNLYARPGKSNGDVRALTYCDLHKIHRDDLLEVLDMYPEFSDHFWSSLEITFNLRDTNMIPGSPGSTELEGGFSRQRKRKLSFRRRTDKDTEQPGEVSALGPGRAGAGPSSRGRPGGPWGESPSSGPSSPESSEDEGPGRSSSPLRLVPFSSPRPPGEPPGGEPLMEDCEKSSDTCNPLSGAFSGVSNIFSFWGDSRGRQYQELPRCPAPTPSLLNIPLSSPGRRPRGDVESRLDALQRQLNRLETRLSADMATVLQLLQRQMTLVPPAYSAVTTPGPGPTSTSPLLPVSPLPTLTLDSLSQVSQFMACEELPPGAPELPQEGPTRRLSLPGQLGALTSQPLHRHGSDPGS

| SMILES | hERG [µM] |
| --- | --- |
| O=C1c2c(Cl)cc(-c3noc(CN4CCNCC4)n3)cc2CN1Cc1ccc(OC(F)(F)F)cc1 [Example 1, 7-Chloro-5-(5-piperazin-1-ylmethyl-[1,2,4]oxadiazol-3-yl)-2-(4-trifluoromethoxybenzyl)-2,3-dihydroisoindol-1-one] | 10 |
| CC1(C)CN(Cc2nc(-c3cc(Cl)c4c(c3)CN(Cc3ccc(OC(F)(F)F)cc3)C4=O)no2)CCN1 [Example 11, 7-chloro-5-[5-(3,3-dimethyl-piperazin-1-ylmethyl)-[1,2,4]oxadiazol-3-yl]-2-(4-trifluoromethoxy-benzyl)-2,3-dihydroisoindol-1-one] | 13 |
| Cc1cc(-c2noc(CN3C[C@@H]4C[C@H]3CN4)n2)cc2c1C(=O)N(Cc1ccc(OC(F)(F)F)cc1)C2 [Example 5, 5-[5-(2,5-diaza-bicyclo[2.2.1]hept-2-ylmethyl)-[1,2,4]oxadiazol-3-yl]-7-methyl-2-(4-trifluoromethoxybenzyl)-2,3-dihydroisoindol-1-one] | 17 |
| Cc1cc(-c2noc(CN3CCNCC3)n2)cc2c1C(=O)N([C@@H](C)c1ccc(Cl)cc1)C2 [Example 6, 2-[(S)-1-(4-Chloro-phenyl)-ethyl]-7-methyl-5-(5-piperazin-1-ylmethyl-[1,2,4]oxadiazol-3-yl)-2,3-dihydro-isoindol-1-one] | 14 |
| Cc1cc(-c2noc(CN3CCNC[C@H]3C)n2)cc2c1C(=O)N(Cc1ccc(Cl)cc1)C2 [Example 8, 2-(4-chloro-benzyl)-7-methyl-5-[5-(2-methyl-piperazin-1-ylmethyl)-[1,2,4]oxadiazol-3-yl]-2,3-dihydroisoindol-1-one] | 11 |
| Cc1cc(-c2noc(CN3CCNC(C)C3)n2)cc2c1C(=O)N(Cc1ccc(Cl)cc1)C2 (centres unmarked) [Example 10, 2-(4-chloro-benzyl)-7-methyl-5-[5-(3-methyl-piperazin-1-ylmethyl)-[1,2,4]oxadiazol-3-yl]-2,3-dihydroisoindol-1-one] | 11 |
| Cc1cc(-c2noc(CN3CCNC[C@@H]3C)n2)cc2c1C(=O)N(Cc1ccc(Cl)cc1)C2 [Example 9, 2-(4-chloro-benzyl)-7-methyl-5-[5-(2-methyl-piperazin-1-ylmethyl)-[1,2,4]oxadiazol-3-yl]-2,3-dihydroisoindol-1-one] | 11 |
| O=C1c2c(Cl)cc(-c3noc(CN4CCNCC4)n3)cc2CN1Cc1ccc(Cl)cc1 [Example 2, 7-chloro-2-(4-chlorobenzyl)-5-(5-piperazin-1-ylmethyl-[1,2,4]oxadiazol-3-yl)-2,3-dihydroisoindol-1-one] | 14 |
| Cc1cc(-c2noc(C(C)N3CCNCC3)n2)cc2c1C(=O)N(Cc1ccc(Cl)cc1)C2 (centres unmarked) [Example 13, 2-(4-Chloro-benzyl)-7-methyl-5-[5-(1-piperazin-1-yl-ethyl)-[1,2,4]oxadiazol-3-yl]-2,3-dihydro-isoindol-1-one] | 13 |
| Cc1cc(-c2noc(CN3C[C@@H]4C[C@H]3CN4)n2)cc2c1C(=O)N([C@@H](C)c1ccc(Cl)cc1)C2 [Example 7, 2-[(S)-1-(4-Chloro-phenyl)-ethyl]-5-{5-[(1S,4S)-1-(2,5-diaza-bicyclo[2.2.1]hept-2-yl)methyl]-[1,2,4]oxadiazol-3-yl}-7-methyl-2,3-dihydro-isoindol-1-one] | 12 |
| Cc1cc(-c2noc(CN3CCNCC3)n2)cc2c1C(=O)N(Cc1ccc(OC(F)(F)F)cc1)C2 [Example 3, 7-methyl-5-(5-piperazin-1-ylmethyl-[1,2,4]oxadiazol-3-yl)-2-(4-trifluoromethoxy-benzyl)-2,3-dihydroisoindol-1-one] | 13 |
| Cc1cc(-c2noc(CN3CCNCC3)n2)cc2c1C(=O)N(Cc1ccc(Cl)cc1)C2 [Example 4, 2-(4-chlorobenzyl)-7-methyl-5-(5-piperazin-1-ylmethyl-[1,2,4]oxadiazol-3-yl)-2,3-dihydroisoindol-1-one] | 8.9 |
| Cc1cc(-c2noc(C(C)N3CCNCC3)n2)cc2c1C(=O)N(Cc1ccc(OC(F)(F)F)cc1)C2 (centres unmarked) [Example 12, 7-Methyl-5-[5-(1-piperazin-1-yl-ethyl)-[1,2,4]oxadiazol-3-yl]-2-(4-trifluoromethoxy-benzyl)-2,3-dihydro-isoindol-1-one] | 17 |
| Cc1cc(-c2noc(C(C)N3CCNCC3)n2)cc2c1C(=O)N([C@@H](C)c1ccc(Cl)cc1)C2 (stereo partly drawn) [Example 14, 2-[(S)-1-(4-Chloro-phenyl)-ethyl]-7-methyl-5-[5-(1-piperazin-1-yl-ethyl)-[1,2,4]oxadiazol-3-yl]-2,3-dihydro-isoindol-1-one] | 11 |
